# Reference: the NIST ThermoML archive (doi:10.1021/je800234h)
# Numbers after ± are expanded uncertainties.
# Test: mn = molality of the nth substance listed, in mol/kg
# Settings: 373.15 K, Liquid, Vibrating tube method
smiles,measurement,setting,value
[Ca+2].[Cl-].[Cl-] [calcium chloride] + CCO,mass density,"4980 kPa, m1 = 1.266",813.49 ± 0.36 kg/m3
same,mass density,"5040 kPa, m1 = 0.9896",794.18 ± 0.36 kg/m3
same,mass density,"5060 kPa, m1 = 0.1743",735.26 ± 0.35 kg/m3
same,mass density,"5140 kPa, m1 = 1.55",834.25 ± 0.36 kg/m3
same,mass density,"5150 kPa, m1 = 0.6899",772.7 ± 0.35 kg/m3
same,mass density,"5170 kPa, m1 = 0.4379",754.76 ± 0.35 kg/m3
same,mass density,"5180 kPa, m1 = 0.09327",729.16 ± 0.35 kg/m3
same,mass density,"9780 kPa, m1 = 1.266",818.85 ± 0.37 kg/m3
same,mass density,"10150 kPa, m1 = 1.55",840.15 ± 0.37 kg/m3
same,mass density,"10480 kPa, m1 = 0.09327",736.08 ± 0.38 kg/m3
same,mass density,"10480 kPa, m1 = 0.4379",761.55 ± 0.37 kg/m3
same,mass density,"10740 kPa, m1 = 0.1743",743.09 ± 0.38 kg/m3
same,mass density,"10740 kPa, m1 = 0.6899",779.75 ± 0.37 kg/m3
same,mass density,"10740 kPa, m1 = 0.9896",801.21 ± 0.37 kg/m3
same,mass density,"15190 kPa, m1 = 0.4379",767.19 ± 0.4 kg/m3
same,mass density,"15210 kPa, m1 = 0.6899",785.01 ± 0.39 kg/m3
same,mass density,"15250 kPa, m1 = 0.1743",748.79 ± 0.4 kg/m3
same,mass density,"15260 kPa, m1 = 1.266",824.65 ± 0.39 kg/m3
same,mass density,"15290 kPa, m1 = 1.55",845.7 ± 0.39 kg/m3
same,mass density,"15360 kPa, m1 = 0.9896",806.48 ± 0.39 kg/m3
same,mass density,"15720 kPa, m1 = 0.09327",742.49 ± 0.41 kg/m3
same,mass density,"20030 kPa, m1 = 1.266",829.44 ± 0.4 kg/m3
same,mass density,"20140 kPa, m1 = 1.55",850.48 ± 0.4 kg/m3
same,mass density,"20160 kPa, m1 = 0.4379",772.75 ± 0.42 kg/m3
same,mass density,"20280 kPa, m1 = 0.09327",747.72 ± 0.43 kg/m3
same,mass density,"20640 kPa, m1 = 0.1743",754.98 ± 0.43 kg/m3
same,mass density,"20750 kPa, m1 = 0.9896",812.16 ± 0.41 kg/m3
same,mass density,"20860 kPa, m1 = 0.6899",791.16 ± 0.42 kg/m3
same,mass density,"25130 kPa, m1 = 0.4379",777.9 ± 0.44 kg/m3
same,mass density,"25180 kPa, m1 = 0.1743",759.68 ± 0.45 kg/m3
same,mass density,"25410 kPa, m1 = 1.266",834.54 ± 0.42 kg/m3
same,mass density,"25670 kPa, m1 = 0.09327",753.48 ± 0.46 kg/m3
same,mass density,"25750 kPa, m1 = 1.55",855.45 ± 0.41 kg/m3
same,mass density,"25840 kPa, m1 = 0.6899",796.14 ± 0.44 kg/m3
same,mass density,"25940 kPa, m1 = 0.9896",817.13 ± 0.43 kg/m3
same,mass density,"29980 kPa, m1 = 1.266",838.62 ± 0.43 kg/m3
same,mass density,"30140 kPa, m1 = 1.55",858.93 ± 0.42 kg/m3
same,mass density,"30150 kPa, m1 = 0.6899",800.1 ± 0.45 kg/m3
same,mass density,"30160 kPa, m1 = 0.9896",820.83 ± 0.44 kg/m3
same,mass density,"30240 kPa, m1 = 0.4379",782.77 ± 0.47 kg/m3
